{"source": "patent US8362260B2", "about": "“Crystalline forms of dexlansoprazole” (Dipharma Francis S.r.l., priority 2009, dated 2013)", "origin": "cited, not measured here", "details": "in vivo"}
{"compound": "Cc1c(OCC(F)(F)F)ccnc1C[S@@+]([O-])c1nc2ccccc2[nH]1", "note": "[Dexlansoprazole in amorphous form, (R)-2-[[[3-methyl-4(2,2,2-trifluoroethoxy)-2-piridyl]methyl]sulphinyl]benzimidazole]", "values": [{"measurement": "bioavailability", "result": "greater bioavailability"}]}
